Experimental data as given in PMC4182301, “Design, synthesis and SAR exploration of tri-substituted 1,2,4-triazoles as inhibitors of the annexin A2–S100A10 protein interaction” (Bioorganic & Medicinal Chemistry, 2014).
“Also recorded” adds a separate entry of the source. Like-named read-outs stand apart in the source and are kept apart here.

Key:
[1] = target: T1, native complex between annexin A2 and S100A10 (Homo sapiens, UniProt P60903); test: Co-immunoprecipitation of AnxA2 with S100A10 (native complex) from cell lysates, Western blot; assay type: binding; conditions: MDA-MB-231 cell lysates preincubated with compound or peptide; compared with vehicle
T1 construct: the native complex of the two full-length proteins, AnxA2 and S100A10; endogenous in cells; host or cells: MDA-MB-231 human breast cancer cells (lysate)
T1 sequence (P60903 whole entry, one chain of several): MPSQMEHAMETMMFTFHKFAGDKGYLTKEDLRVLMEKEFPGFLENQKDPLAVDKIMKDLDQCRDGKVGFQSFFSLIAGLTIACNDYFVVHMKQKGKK
Method: In the presence of the isolated synthetic peptide AnxA2(1–14), the amount of AnxA2 in the S100A10 immunoprecipitate is reduced, due to it competing with the binding between native AnxA2 and S100A10.
Figure 5 Co-immunoprecipitation of AnxA2 with S100A10. S100A10 was immunoprecipitated from cell lysates and co-immunoprecipitation of AnxA2 was assessed by Western blotting. The amount of AnxA2 in the S100A10 immunoprecipitate was quantified using Scion Image Software and expressed as a percentage of the vehicle-treated sample (n = 4 ± SE).
Human MDA-MB-231 breast cancer cells were extracted in 50 mM Tris–HCl (pH 8.0) buffer containing 150 mM sodium chloride and 1% (v/v) NP-40. Lysates were centrifuged at 17,000×g and incubated at 4 °C for 16 h with 10 μL S100A10 antibody (BD transduction Laboratories) and 50 μL protein A/G agarose (Alpha Diagnostic International Inc). […] The supernatant was then analyzed by SDS–PAGE after which the gel was transferred to a nitrocellulose filter. […]

[2] = target: interaction between the AnxA2 N-terminus and S100A10 (Homo sapiens, UniProt P60903); test: Fluorescence screening assay (FRET competitive binding, Cy3-AnxA2(Ac1–14) peptide / Cy5-S100A10); conditions: for pIC50 ± SE / IC50: FRET assay, 12 observations; for IC50: read-out: IC50; for fold increase in potency compared to initial hit compound 1a: relative to 1a; for inhibitory activity (in words): truncation of 35 to 5-methyl derivative, and its side chain extension; for fold loss of activity on truncation of the 4,6-dimethylpyrimidin-2-ylsulfanyl side chain to methyl: relative to parent compound (64 vs 36, 65 vs 46, 66 vs 47)
Chain of interaction between the AnxA2 N-terminus and S100A10 (P60903 whole entry, species assumed, the tested form may be a part): as the sequence (P60903 whole entry, one chain of several) above
Method: Assessment of compound activity was performed as described.[35] Briefly, a Cy5-labelled S100A10 tracer was developed and binding of a Cy3-labelled AnxA2(Ac1–14) peptide ligand was assessed using a fluorescence resonance energy transfer readout. Assays were carried out in Nunc black non-treated 384-well plates at 20 °C in 50 μL buffer C. All incubations were performed in quadruplicate. Compounds, peptide and buffer controls were added to the wells in a 10 μL volume in 5% DMSO. Cy5-labelled S100A10 tracer (407 nM) and Cy3-labelled AnxA2(Ac1–14) peptide ligand (1.33 μM) were pre-incubated for 5 min at 20 °C and 40 μL of the preformed complex was then added to the wells and mixed for 10 s to yield a final DMSO concentration of 1%. After 5 min incubation at 20 °C, readings were taken on a Perkin Elmer Envision plate reader by excitation at 488 nm and emission at 695 nm. Fluorescence resonance energy transfer (FRET) was calculated by subtracting the sum of the fluorescence emission of S100A10-Cy5 and AA2(1–14)-Cy3 individually from that measured for the co-incubated partners. Compound binding was calculated as percentage of non-treated control and data were analysed by non-linear regression (dose response—variable slope with bottom and top parameters fixed at 0% and 100%, respectively) using Graphpad Prism Software to determine the IC50 of binding (primary assay).

Structure (SMILES)	pIC50 ± SE ([2]; Table 2)	IC50 ([2]; Table 2) [µM]	pIC50 ± SE ([2]; Table 3)	IC50 ([2]; Table 3) [µM]	also measured
Cc1cc(C)nc(SCc2nnc(SCC(=O)Nc3ccc(C(C)C)cc3)n2Cc2ccco2)n1 [Compound 36, 2-[5-(4,6-Dimethyl-pyrimidin-2-ylsulfanylmethyl)-4-furan-2-ylmethyl-4H-[1,2,4]triazol-3-ylsulfanyl]-N-(4-isopropyl-phenyl)-acetamide]					amount of AnxA2 in the S100A10 immunoprecipitate [1]: disrupt the native complex; also recorded: reduced; pIC50 ± SE ([2]; Table 1): 5.35 ± 0.04; IC50 ([2]; Table 1): 4 µM; fold increase in potency compared to initial hit compound 1a [2]: ~10 fold
Cc1cc(C)nc(SCc2nnc(SCC(=O)Nc3ccc(C(C)C)cc3)n2-c2ccc(Cl)cc2)n1 [Compound 49, 2-[4-(4-Chloro-phenyl)-5-(4,6-dimethyl-pyrimidin-2-ylsulfanylmethyl)-4H-[1,2,4]triazol-3-ylsulfanyl]-N-(4-isopropyl-phenyl)-acetamide]	4.58 ± 0.04	27			
C=CCn1c(CSc2nc(C)cc(C)n2)nnc1SCC(=O)Nc1ccc(C(F)(F)F)cc1 [Compound 50, 2-[4-Allyl-5-(4,6-dimethyl-pyrimidin-2-ylsulfanylmethyl)-4H-[1,2,4]triazol-3-ylsulfanyl]-N-(4-trifluoromethyl-phenyl)-acetamide]	5.08 ± 0.04	8			
COCCCn1c(CSc2nc(C)cc(C)n2)nnc1SCC(=O)Nc1ccc(C(F)(F)F)cc1 [Compound 51, 2-[5-(4,6-Dimethyl-pyrimidin-2-ylsulfanylmethyl)-4-(3-methoxy-propyl)-4H-[1,2,4]triazol-3-ylsulfanyl]-N-(4-trifluoromethyl-phenyl)-acetamide]	5.02 ± 0.04	10			
COc1ccc(-n2c(CSc3nc(C)cc(C)n3)nnc2SCC(=O)Nc2ccc(C(F)(F)F)cc2)cc1 [Compound 52, 2-[5-(4,6-Dimethyl-pyrimidin-2-ylsulfanylmethyl)-4-(4-methoxy-phenyl)-4H-[1,2,4]triazol-3-ylsulfanyl]-N-(4-trifluoromethyl-phenyl)-acetamide]	5.35 ± 0.04	4			fold increase in potency compared to initial hit compound 1a [2]: 10 fold
Cc1cc(C)nc(SCc2nnc(SCC(=O)Nc3ccc(C(F)(F)F)cc3)n2-c2ccc(Cl)cc2)n1 [Compound 53, 2-[4-(4-Chloro-phenyl)-5-(4,6-dimethyl-pyrimidin-2-ylsulfanylmethyl)-4H-[1,2,4]triazol-3-ylsulfanyl]-N-(4-trifluoromethyl-phenyl)-acetamide]	5.07 ± 0.03	8			
COc1ccc(-n2c(CSc3nc(C)cc(C)n3)nnc2SCC(=O)Nc2cc(C(F)(F)F)cc(C(F)(F)F)c2)cc1 [Compound 54, N-(3,5-Bis-trifluoromethyl-phenyl)-2-[5-(4,6-dimethyl-pyrimidin-2-ylsulfanylmethyl)-4-(4-methoxy-phenyl)-4H-[1,2,4]triazol-3-ylsulfanyl]-acetamide]	5.14 ± 0.04	7			
COc1ccc(-n2c(CSc3nc(C)cc(C)n3)nnc2SCC(=O)Nc2ccc(Cl)cc2)cc1 [Compound 55, N-(4-Chloro-phenyl)-2-[5-(4,6-dimethyl-pyrimidin-2-ylsulfanylmethyl)-4-(4-methoxy-phenyl)-4H-[1,2,4]triazol-3-ylsulfanyl]-acetamide]	4.65 ± 0.05	22			
COc1ccc(NC(=O)CSc2nnc(CSc3nc(C)cc(C)n3)n2-c2ccc(OC)cc2)cc1 [Compound 56, 2-[5-(4,6-Dimethyl-pyrimidin-2-ylsulfanylmethyl)-4-(4-methoxy-phenyl)-4H-[1,2,4]triazol-3-ylsulfanyl]-N-(4-methoxy-phenyl)-acetamide]	3.81 ± 0.03	154			
Cc1ccc(NC(=O)CSc2nnc(C)n2Cc2ccco2)cc1C [Compound 62, N-(3,4-Dimethyl-phenyl)-2-(4-furan-2-ylmethyl-5-methyl-4H-[1,2,4]triazol-3-ylsulfanyl)-acetamide]			2.32 ± 0.48	> 1000	inhibitory activity (in words) [2]: complete loss of activity
Cc1ccc(NC(=O)CCSc2nnc(C)n2Cc2ccco2)cc1C [Compound 63, N-(3,4-Dimethyl-phenyl)-3-(4-furan-2-ylmethyl-5-methyl-4H-[1,2,4]triazol-3-ylsulfanyl)-propionamide]			2.95 ± 0.26	> 1000	inhibitory activity (in words) [2]: abolished activity
Cc1nnc(SCC(=O)Nc2ccc(C(C)C)cc2)n1Cc1ccco1 [Compound 64, 2-(4-Furan-2-ylmethyl-5-methyl-4H-[1,2,4]triazol-3-ylsulfanyl)-N-(4-isopropyl-phenyl)-acetamide]			4.40 ± 0.03	40	fold loss of activity on truncation of the 4,6-dimethylpyrimidin-2-ylsulfanyl side chain to methyl [2]: 10 fold
C=CCn1c(C)nnc1SCC(=O)Nc1ccc(C(C)C)cc1 [Compound 65, 2-(4-Allyl-5-methyl-4H-[1,2,4]triazol-3-ylsulfanyl)-N-(4-isopropyl-phenyl)-acetamide]			3.86 ± 0.11	138	fold loss of activity on truncation of the 4,6-dimethylpyrimidin-2-ylsulfanyl side chain to methyl [2]: 14 fold
COCCCn1c(C)nnc1SCC(=O)Nc1ccc(C(C)C)cc1 [Compound 66, N-(4-Isopropyl-phenyl)-2-[4-(3-methoxy-propyl)-5-methyl-4H-[1,2,4]triazol-3-ylsulfanyl]-acetamide]			3.79 ± 0.14	164	fold loss of activity on truncation of the 4,6-dimethylpyrimidin-2-ylsulfanyl side chain to methyl [2]: 23 fold
